# Source: US12276663B2, “Detection of human leukocyte antigen-A*32:01 in connection with determining drug reaction with eosinophilia and systemic symptoms (DRESS) and methods of treating bacterial infection in a subject with vancomycin-induced DRESS” (priority 2019, dated 2025)
# Where “and” joins values, the source holds several entries; their conditions need not be identical. Identical values can stand only once. Entries after “also recorded” stand apart in the source; their conditions may differ. Like-named read-outs stand apart in the source and are kept apart here.
# Assays:
# [1] = system: peripheral blood mononuclear cells from vancomycin DRESS patients; experiment: Overnight IFN-γ ELISpot assay (Example 1); type: cell-based, human
# Protocol: (§1) Overnight IFN-γ ELISpot assays were performed in triplicate (Mabtech Kit 3420-2H) as previously described^10-12 using negative (unstimulated) and positive (anti-CD3 Mabtech antibody and/or SEB) controls.
# [2] = system: PBMCs from HLA-A*32:01 positive vancomycin DRESS patients; experiment: IFN-γ release ELISpot assay with four glycopeptide antibiotics (Example 2); type: cell-based, human
# [3] = system: peripheral blood mononuclear cells; experiment: Overnight IFN-γ ELISpot assay (Example 1); type: cell-based, human; settings: thirteen controls (HLA-A*32:01 positive donors, non-DRESS ADR patients, non-HLA matched healthy donors)
# Protocol: as §1
# [4] = Time-to-event analysis of vancomycin-exposed BioVU cohort; type: in vivo, human
# Protocol: 137 of the 1,672 HLA-A*32:01 negative individuals were randomly selected to serve as an equal-sized control group. […] ADR latency, defined as the length of time from initiation of vancomycin to symptom onset, as well as any concurrent antimicrobials were documented. Analyses were carried out by Fisher's exact tests, logistic and Cox regression as appropriate in R version 3.4.3.
# [5] = Intradermal skin testing (IDT) (Example 1)
# [6] = Intradermal skin testing to vancomycin and teicoplanin (Example 2)
# Source text: Patients ID 1,3 and 5 also tolerated ingestion challenges with concurrently administered medications.
# [7] = Clinical characterisation of vancomycin DRESS cases (latency); type: in vivo, human
# Source text: Retrospective patients were detected using Vanderbilt's BioVU repository, a deidentified electronic health record (EHR) database linked to a DNA biobank in operation since Feb. 7, 2007. Prospective patients with potential DRESS were enrolled to confirm genetic findings from the BioVU analysis using vancomycin-specific immunological studies to support clinical diagnoses. All patients prospectively enrolled from participating centers provided written or electronic consent. Institutional review board (IRB) approvals were in place for the BioVU study and for all sites contributing to the prospective study (Vanderbilt University Medical Center in Nashville (Tennessee, USA), Austin Health, Peter MacCallum Cancer Centre, and Alfred Health in Melbourne (Victoria, Australia), Fiona Stanley Hospital and Royal Perth Hospital in Perth (Western Australia, Australia)). Saliva and blood were routinely collected from prospective patients, processed and stored as repositories of DNA, peripheral blood mononuclear cells (PBMCs) and plasma.
# All patients provided written or electronic informed consent. Saliva and blood were collected, processed, and stored as repositories of DNA, peripheral blood mononuclear cells (PBMCs), and plasma.
# HLA-A*32:01 = HLA-A*32:01 (Homo sapiens, UniProt P04439, A270S/D101S/D185E/E176V/E277Q/F133L/G103R/G107R/G231S/H175R/I121M/I218V/I322F/K168Q/L105A/L300P/L318F/M331R/P208A/P217A/Q94H/R106L/R138Q/S129P/T104I/T323A/T345S/V100E/V321M/V358M)
# Protocol: High resolution four digit HLA A B C DP DR DQ typing was performed using either sequence-based typing on 454FLX or Illumina Miseq^7,8 or imputed from SNP data from HumanExome BeadChip and GWAS platforms by Expanded Multi-Ethnic Genotyping Array (MEGA^EX, Illumina), HumanOmni-Quad, HumanOmni5-Quad and Human660W-Quad using SNP2HLA as previously described^9. Imputation for HLA-A*32:01 using SNP2HLA has a reported accuracy of 99.46%9. Associations between DRESS and carriage of HLA-A/B/C/DRB1/DQA1/DQB1/DPB1 alleles at the 4-digit level were assessed by conditional logistic regression to accommodate the matching. Analyses were carried out in R version 3.4.3. (R Core Team (2017)). R: A language and environment for statistical computing. R Foundation for Statistical Computing, Vienna, Austria. R-project.org/).
# [8] = Oral / ingestion challenge with concurrently administered medications; settings: patient 18
# [9] = cited from earlier work
# [10] = PBMCs from Patient 17 (carries risk allele)
compound,measurement,setting,value
CO[C@H]1/C=C/O[C@@]2(C)Oc3c(C)c(O)c4c(O)c(c(/C=N/N5CCN(C)CC5)c(O)c4c3C2=O)NC(=O)/C(C)=C\C=C\[C@H](C)[C@H](O)[C@@H](C)[C@@H](O)[C@@H](C)[C@H](OC(C)=O)[C@@H]1C [rifampin],IFN-γ ELISpot response,[1]; [10],positive response
same,IFN-γ ELISpot response,[1]; cells from Patient 4 and other healthy donors,did not respond
same,IFN-γ ELISpot response,[2]; PBMCs from Patient 13 and other healthy donors,did not respond
same,IFN-γ ELISpot response,"[2]; PBMCs from Patient ID 2, rifampin at 5 μg/mL",positive response
CN[C@H](CC(C)C)C(=O)N[C@H]1C(=O)N[C@@H](CC(N)=O)C(=O)N[C@H]2C(=O)N[C@H]3C(=O)N[C@H](C(=O)N[C@H](C(=O)O)c4cc(O)cc(O)c4-c4cc3ccc4O)[C@H](O)c3ccc(c(Cl)c3)Oc3cc2cc(c3O[C@@H]2O[C@H](CO)[C@@H](O)[C@H](O)[C@H]2O[C@H]2C[C@](C)(N)[C@H](O)[C@H](C)O2)Oc2ccc(cc2Cl)[C@H]1O [vancomycin],IFN-γ ELISpot response,[1]; [10],did respond
same,IFN-γ ELISpot response,[1]; PBMCs from patient 21 (HLA-A*32:01 negative),persistently negative
same,DRESS cases with a positive IFN-γ ELISpot response,"[1]; PBMCs of prospectively enrolled vancomycin DRESS cases, positive >50 SFU/million cells",12/14
same,IFN-γ ELISpot concentration dependence,"[1]; patient and control PBMCs, also 5 μg/mL and 50 μg/mL, data not shown",dose-dependent response
same,IFN-γ ELISpot at repeat blood draws,"[1]; three ELISpot positive patients, time points distant from the initial reaction",repeat positive results
same,IFN-γ ELISpot response in controls,[3],none demonstrated a positive vancomycin IFN-γ ELISpot; also recorded: None of the controls released IFN-γ
same,development of DRESS or symptoms suggestive of DRESS,"[4]; 119 HLA-A*32:01 negative individuals, at least one week of uninterrupted vancomycin",none
same,estimated probability of developing DRESS,"[4]; HLA-A*32:01 carriers, at four weeks of vancomycin",19.2% and ~20%
same,median time to DRESS symptoms after vancomycin initiation,[4]; vancomycin-exposed BioVU cohort,18 days
same,intradermal challenge response,[5]; HLA-A*32:01 positive individuals not exposed to vancomycin,negative responses
same,immediate IDT response at 20 minutes,[5]; both HLA-A*32:01 positive individuals (patient 18 and control C51),strong immediate histamine response
same,delayed IDT at 24 and 48 hours,"[5]; patient 18 (history of DRESS), 0.5, 5 and 50 mg/mL",delayed positive IDT; also recorded: concentration dependent induration of the skin
same,delayed intradermal testing,[6]; Patient ID 9,positive delayed intradermal testing
same,delayed intradermal testing,"[6]; Patient ID 9, 10, and 11",positive delayed intradermal testing
same,intradermal skin test response,"[6]; Patient ID 15, approximately 6 months after vancomycin DRESS",positive responses
same,mean vancomycin trough,"DRESS cases, n=116",17.2 µg/mL
same,range of vancomycin trough,"DRESS cases, n=116",3 to 44 µg/mL
same,mean vancomycin trough,"tolerant controls, n=644",19.6 µg/mL
same,median vancomycin trough,"tolerant controls, n=644",18 µg/mL
same,range of vancomycin trough,"tolerant controls, n=644",2 to 86 µg/mL
same,median latency period from vancomycin initiation to the first symptoms of DRESS,[7]; 15 patients (Example 2),21 days
same,mean latency period to first symptoms of DRESS,[7]; 23 DRESS cases (Example 1),22.9 days
same,median latency period from vancomycin initiation to the first symptoms of DRESS,[7]; 23 DRESS cases (Example 1),21 days
same,range of latency period to first symptoms of DRESS,[7]; 23 DRESS cases (Example 1),14 to 50 days
same,IFN-γ ELISpot concentration dependence,[2],dose dependent manner
same,vancomycin DRESS cases with a positive IFN-γ ELISpot response,[2],15 (100%)
same,HLA-A*32:01 carriage in vancomycin DRESS cases,HLA-A*32:01; all DRESS cases,19/23
same,HLA-A*32:01 carriage in matched vancomycin tolerant controls,HLA-A*32:01; controls matched to all cases,0/46
same,HLA-A*32:01 carriage in matched controls,HLA-A*32:01; controls matched to immunologically confirmed cases,0/24
same,HLA-A*32:01 carriage in vancomycin IFN-γ ELISpot positive patients,HLA-A*32:01; immunologically confirmed cases,11/12
C[C@H]1COc2c(N3CCN(C)CC3)c(F)cc3c(=O)c(C(=O)O)cn1c23 [levofloxacin],oral challenge / rechallenge,[8],negative; also recorded: successfully rechallenged
CN[C@H]1C(=O)N[C@@H]2Cc3ccc(cc3)Oc3cc4cc(c3O[C@@H]3O[C@H](C(=O)O)[C@@H](O)[C@H](O)[C@H]3NC(=O)CCCCCCCCC(C)C)Oc3ccc(cc3Cl)[C@@H](O)[C@@H]3NC(=O)[C@H](NC(=O)[C@@H]4NC(=O)[C@@H](NC2=O)c2cc(cc(O)c2Cl)Oc2cc1ccc2O)c1ccc(O)c(c1)-c1c(O[C@H]2O[C@H](CO)[C@@H](O)[C@H](O)[C@@H]2O)cc(O)cc1[C@@H](C(=O)NCCCN(C)C)NC3=O [dalbavancin],half-life,[9],14 days
same,vancomycin DRESS cases with negative ELISpot / no cross-reactivity,[2],100%
teicoplanin,delayed intradermal testing,[6]; in vivo,negative
same,vancomycin DRESS cases with a negative IFN-γ ELISpot response,[2],13/15
same,vancomycin DRESS cases with immunological cross-reactivity by ELISpot,[2],13%
same,vancomycin DRESS cases with negative ELISpot / no cross-reactivity,[2],approximately 87%
same,cross-reactivity with vancomycin in IFN-γ ELISpot,[2]; Patient ID 8 and 15,cross-reactivity
same,IFN-γ ELISpot response,"[2]; Patient ID 9, 10, and 11",negative IFN-γ ELISpot
same,vancomycin DRESS cases with a positive IFN-γ ELISpot response,[2]; positive >50 SFU/million cells,2/15
CCCCCCCCCCNCCN[C@@]1(C)C[C@H](O[C@H]2[C@H](Oc3c4cc5cc3Oc3ccc(cc3Cl)[C@@H](O)[C@@H](NC(=O)[C@@H](CC(C)C)NC)C(=O)N[C@@H](CC(N)=O)C(=O)N[C@H]5C(=O)N[C@H]3C(=O)N[C@H](C(=O)N[C@H](C(=O)O)c5cc(O)c(CNCP(=O)(O)O)c(O)c5-c5cc3ccc5O)[C@H](O)c3ccc(c(Cl)c3)O4)O[C@H](CO)[C@@H](O)[C@@H]2O)O[C@@H](C)[C@H]1O [telavancin],cross-reactivity with vancomycin in IFN-γ ELISpot,[2],cross-reactivity
same,vancomycin DRESS cases with a negative IFN-γ ELISpot response,[2],6/9
same,vancomycin DRESS cases with a positive IFN-γ ELISpot response,[2],three
same,vancomycin DRESS cases with immunological cross-reactivity by ELISpot,[2],13%
same,vancomycin DRESS cases with negative ELISpot / no cross-reactivity,[2],~67%
